Measurements reported in patent US7700788B2, “Hydroxymethyl furfural oxidation methods” (Battelle Memorial Institute, priority 2006, dated 2010).

Assay: Solubility of FDCA in acetic acid/water mixtures
Type: physicochemical

- Solubility (0 Vol % HOAc / 100 Vol % H2O, 25° C.): 0.086 wt %
- Solubility (0 Vol % HOAc / 100 Vol % H2O, 70° C.): 0.327 wt %
- Solubility in 40/60 HOAc/H2O relative to pure water (40/60 HOAc/H2O versus pure water): about twice the solubility in pure water
- Solubility (40 Vol % HOAc / 60 Vol % H2O, 25° C.): 0.153 wt %
- Solubility (40 Vol % HOAc / 60 Vol % H2O, 70° C.): 0.779 wt %
- Solubility (50 Vol % HOAc / 50 Vol % H2O, 25° C.): 0.173 wt %
- Solubility (50 Vol % HOAc / 50 Vol % H2O, 70° C.): 0.746 wt %
- Solubility (60 Vol % HOAc / 40 Vol % H2O, 25° C.): 0.171 wt %
- Solubility (60 Vol % HOAc / 40 Vol % H2O, 70° C.): 0.596 wt %
- Solubility (70 Vol % HOAc / 30 Vol % H2O, 25° C.): 0.143 wt %
- Solubility (70 Vol % HOAc / 30 Vol % H2O, 70° C.): 0.592 wt %
- Solubility (90 Vol % HOAc / 10 Vol % H2O, 25° C.): 0.138 wt %
- Solubility (90 Vol % HOAc / 10 Vol % H2O, 70° C.): 0.458 wt %
- Solubility (100 Vol % HOAc / 0 Vol % H2O, 25° C.): 0.080 wt %
- Solubility (100 Vol % HOAc / 0 Vol % H2O, 70° C.): 0.193 wt %
Compound: O=C(O)c1ccc(C(=O)O)o1 [FDCA]
